Source: ChEMBL document CHEMBL3085718, “Discovery and optimization of orally active cyclohexane-based prolylcarboxypeptidase (PrCP) inhibitors” (Bioorg Med Chem Lett, 2013)

Experiments:
[1] = in vivo; conditions: mouse, po
[2] = in vivo; conditions: mouse
[3] = in vivo; conditions: C57, mouse, plasma, po, 30 mg/kg
[4] = Plasma concentration in C57 mouse at 10 mg/kg, po after 20 hrs by LC/MS analysis; assay type: ADME, organism-based; design: dose 10 mg/kg, route oral

SMILES | bioavailability [1] [%] | half-life [2] [h] | concentration at 20 h [3] [nM] | concentration at 20 h [4] [nM]
O=C(NC(c1ccc(F)cc1)c1ccc(F)cc1)[C@@H]1CC[C@@H](N2CCOCC2)C[C@H]1c1ccc(Br)cc1 | 77 | 7.6 | 1020 | –
O=C(NC(c1ccncc1)c1ccc(Cl)cc1)[C@@H]1CC[C@@H](N2CCOCC2)C[C@H]1c1ccc(Br)cc1 (stereo not given in full) | 8.9 | 1.4 | – | –
O=C(NC(c1ccccc1)c1ccccc1)[C@@H]1CC[C@@H](N2CCOCC2)C[C@H]1c1ccc(Br)cc1 | 36 | 3.1 | – | –

Continued, values first:

bioavailability [1] [%] | half-life [2] [h] | concentration at 20 h [3] [nM] | concentration at 20 h [4] [nM] | SMILES
6.9 | 2 | – | – | O=C(NC(c1ccncc1)c1ccc(F)cc1)[C@@H]1CC[C@@H](N2CCOCC2)C[C@H]1c1ccc(Br)cc1 (stereo not given in full)
17 | 1.5 | – | – | O=C(NC(c1ccc(Cl)cc1)c1ccncc1Cl)[C@@H]1CC[C@@H](N2CCOCC2)C[C@H]1c1ccc(Br)cc1 (stereo not given in full)
90 | 2.9 | 390 | 163 | O=C(NC(c1ccc(Cl)cc1)c1ccnc(F)c1)[C@@H]1CC[C@@H](N2CCOCC2)C[C@H]1c1ccc(Br)cc1 (stereo not given in full)
50 | 4.9 | 1840 | – | O=C(NC(c1ccc(Cl)cc1)c1ccc(F)cn1)[C@@H]1CC[C@@H](N2CCOCC2)C[C@H]1c1ccc(Br)cc1 (stereo not given in full)
5.2 | 1.2 | – | – | O=C(NC(c1ccc(Cl)cc1)c1cnccn1)[C@@H]1CC[C@@H](N2CCOCC2)C[C@H]1c1ccc(Br)cc1 (stereo not given in full)
